Test system: Escherichia coli
Experiment: Compound was evaluated to inhibit the LAL response produced by two endotoxin units of Escherichia coli LPS
Format: functional, organism-based

SMILES | Concentration [µg/mL]
CCCCCCCCCCCCCC[N+](C)(C)C[C@@H]1OC(C)(C)O[C@H]1C[N+](C)(C)CCCCCCCCCCCCCC | 75
CCCCCCCCCCCCCC[N+](C)(C)C[C@@H]1OCO[C@H]1C[N+](C)(C)CCCCCCCCCCCCCC | 75

— ChEMBL document CHEMBL1127930, “Design, synthesis and biological properties of structurally non-related endotoxin inhibitors” (Bioorg Med Chem Lett, 1994)
